Molecular target: T1, cloned human glucagon receptor (Homo sapiens, UniProt P47871)
T1 construct: expressed in transfected cells; plasma membrane preparation
Experiment: Glucagon Binding Assay (II)
Settings: for inhibition at 1 µM: screened at 1 μM, library compounds, read-out: displacement of the glucagon tracer when screened at 1 μM concentration in the glucagon binding assay II; for IC50: plasma membranes of BHK cells expressing the receptor, read-out: Glu Bd Assay (II) IC50

T1 sequence (P47871 26-477): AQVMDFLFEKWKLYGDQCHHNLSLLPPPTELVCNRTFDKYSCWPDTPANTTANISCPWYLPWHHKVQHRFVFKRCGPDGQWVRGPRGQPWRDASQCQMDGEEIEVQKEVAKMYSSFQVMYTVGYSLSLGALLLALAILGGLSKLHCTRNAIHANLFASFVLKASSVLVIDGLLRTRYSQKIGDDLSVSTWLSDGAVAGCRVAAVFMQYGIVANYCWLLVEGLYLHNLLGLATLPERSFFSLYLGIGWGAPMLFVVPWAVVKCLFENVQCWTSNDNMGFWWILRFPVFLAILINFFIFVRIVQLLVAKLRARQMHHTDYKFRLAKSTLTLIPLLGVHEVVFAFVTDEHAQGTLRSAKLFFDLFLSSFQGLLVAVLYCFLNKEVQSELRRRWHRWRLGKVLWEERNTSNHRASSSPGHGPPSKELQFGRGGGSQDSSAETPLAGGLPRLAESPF

Structure (SMILES)	inhibition at 1 µM	IC50
CC1(C)C2CCC(CN(Cc3ccc(OCCCC(=O)O)cc3)C(=O)Nc3ccc(Cl)c(C(F)(F)F)c3)C1C2 (stereo not drawn) [Example 215, 4-{4-[3-(4-Chloro-3-trifluoromethylphenyl)-1-(6,6-dimethylbicyclo[3.1.1]hept-2-ylmethyl)ureidomethyl]phenoxy}butyric acid]	> 50%	–
O=C(O)CCCOc1ccc(CN(C(=O)Nc2ccc(OC(F)(F)F)cc2)c2ccc(C3CCCCC3)cc2)cc1 [Example 216, 4-{4-[1-(4-Cyclohexylphenyl)-3-(4-trifluoromethoxyphenyl)ureidomethyl]phenoxy}butyric acid]	> 50%	–
O=C(O)CCCOc1ccc(CN(C(=O)Nc2ccc(Cl)c(C(F)(F)F)c2)c2ccc(C3CCCCC3)cc2)cc1 [Example 217, 4-{4-[3-(4-Chloro-3-trifluoromethylphenyl)-1-(4-cyclohexylphenyl)ureidomethyl]phenoxy}butyric acid]	> 50%	–
O=C(O)CCCOc1ccc(CN(C(=O)Nc2ccc(C(=O)O)cc2)c2ccc(C3CCCCC3)cc2)cc1 [Example 218, 4-[3-[4-(3-Carboxypropoxy)benzyl]-3-(4-cyclohexylphenyl)ureido]benzoic acid]	> 50%	–
Cc1cc(C)cc(NC(=O)N(Cc2ccc(OCCCC(=O)O)cc2)c2ccc(C3CCCCC3)cc2)c1 [Example 219, 4-{4-[1-(4-Cyclohexylphenyl)-3-(3,5-dimethylphenyl)ureidomethyl]phenoxy}butyric acid]	> 50%	–
O=C(O)CCCOc1ccc(CN(C(=O)Nc2cc(C(=O)O)cc(C(=O)O)c2)c2ccc(C3CCCCC3)cc2)cc1 [Example 220, 5-[3-[4-(3-Carboxypropoxy)benzyl]-3-(4-cyclohexylphenyl)ureido]isophthalic acid]	> 50%	–
COc1ccc2nc(N(Cc3ccc(OCCCC(=O)O)cc3)C(=O)Nc3ccc(Cl)c(C(F)(F)F)c3)sc2n1 [Example 221, 4-{4-[3-(4-Chloro-3-trifluoromethylphenyl)-1-(5-methoxythiazolo[5,4-b]pyridin-2-yl)ureidomethyl]phenoxy}butyric acid]	> 50%	–
CC(C)(C)C1CCC(N(Cc2ccc(OCCCC(=O)O)cc2)C(=O)Nc2ccc(OC(F)(F)F)cc2)CC1 (stereo not drawn) [Example 224, 4-{4-[1-(4-tert-Butylcyclohexyl)-3-(4-trifluoromethoxyphenyl)ureidomethyl]phenoxy}butyric acid]	> 50%	–
CC(C)(C)C1CCC(N(Cc2ccc(OCCCC(=O)O)cc2)C(=O)Nc2ccc(Cl)c(C(F)(F)F)c2)CC1 (stereo not drawn) [Example 225, 4-{4-[1-(4-tert-Butylcyclohexyl)-3-(4-chloro-3-trifluoromethylphenyl)ureidomethyl]phenoxy}butyric acid]	> 50%	–
CC(C)(C)C1CCC(N(Cc2ccc(OCCCC(=O)O)cc2)C(=O)Nc2ccc(C(=O)O)cc2)CC1 (stereo not drawn) [Example 226, 4-{3-(4-tert-Butylcyclohexyl)-3-[4-(3-carboxypropoxy)benzyl]ureido}benzoic acid]	> 50%	–
Cc1cc(C)cc(NC(=O)N(Cc2ccc(OCCCC(=O)O)cc2)C2CCC(C(C)(C)C)CC2)c1 (stereo not drawn) [Example 227, 4-{4-[1-(4-tert-Butylcyclohexyl)-3-(3,5-dimethylphenyl)ureidomethyl]phenoxy}butyric acid]	> 50%	–
O=C(O)CCN1C(=O)c2ccc(CN(C(=O)Nc3ccc(OC(F)(F)F)cc3)c3ccc4nc(S)sc4c3)cc2C1=O [Example 228, 3-{5-[1-(2-Mercaptobenzothiazol-6-yl)-3-(4-trifluoromethoxyphenyl)ureidomethyl]-1,3-dioxo-1,3-dihydro-isoindol-2-yl}propionic acid]	> 50%	–
O=C(O)CCN1C(=O)c2ccc(CN(C(=O)Nc3ccc(Cl)c(C(F)(F)F)c3)c3ccc4nc(S)sc4c3)cc2C1=O [Example 229, 3-{5-[3-(4-Chloro-3-trifluoromethylphenyl)-1-(2-mercaptobenzothiazol-6-yl)ureidomethyl]1,3-dioxo-1,3-dihydro-isoindol-2-yl}propionic acid]	> 50%	–
CC(C)(C)C1CCC(N(Cc2ccc(C(=O)NCCC(=O)O)cc2)C(=O)Nc2ccc(Cl)cc2)CC1 (stereo not drawn) [Example 230, 3-{4-[1-(4-tert-Butylcyclohexyl)-3-(4-chlorophenyl)ureidomethyl]benzoylamino}propionic acid]	–	0.229 µM
O=C(O)CCNC(=O)c1ccc(CN(C(=O)Nc2ccc(OC(F)(F)F)cc2)C2CC2c2ccccc2)cc1 (stereo not drawn) [Example 231, 3-{4-[1-(2-Phenylcyclopropyl)-3-(4-trifluoromethoxyphenyl)ureidomethyl]benzoylamino}propionic acid]	–	0.349 µM
O=C(O)CCNC(=O)c1ccc(CN(C(=O)Nc2ccc(SC(F)(F)F)cc2)c2ccc(C3CCCCC3)cc2)cc1 [Example 233, 3-{4-[1-(4-Cyclohexylphenyl)-3-(4-trifluoromethylsulfanylphenyl)ureidomethyl]benzoylamino}propionic acid]	–	0.02 µM
CC1(C)[C@@H]2CC[C@@H](CN(Cc3ccc(C(=O)NCCC(=O)O)cc3)C(=O)Nc3ccc(OC(F)(F)F)cc3)[C@@H]1C2 [Example 234, 3-{4-[1-([(1S,2R,5R)-6,6-Dimethylbicyclo[3.1.1]hept-2-yl]methyl)-3-(4-trifluoromethoxyphenyl)ureidomethyl]benzoylamino}propionic acid]	–	0.112 µM

Structure (SMILES)	inhibition at 1 µM	IC50
CC(C)(C)[C@H]1CC[C@H](N(Cc2ccc(C(=O)NCCC(=O)O)cc2)C(=O)Nc2ccc(SC(F)(F)F)cc2)CC1 [Example 235]	–	0.014 µM
CC(C)(C)C1CCC(N(Cc2ccc(C(=O)NCCC(=O)O)cc2)C(=O)Nc2ccc(Cl)c(C(F)(F)F)c2)CC1 (stereo not drawn) [Example 236]	–	0.029 µM
CC(C)(C)C1CCC(N(Cc2ccc(OC(F)(F)F)cc2)Cc2ccc(C(=O)NCCC(=O)O)cc2)CC1 (stereo not drawn) [Example 385, 3-(4-{[(4-tert-Butylcyclohexyl)-(4-trifluoromethoxybenzyl)amino]methyl}benzoylamino)propionic acid]	–	0.033 µM
O=C(O)CCNC(=O)c1ccc(CN(Cc2ccc(OC(F)(F)F)cc2)c2ccc(C3CCCCC3)cc2)cc1 [Example 386, 3-(4-{[(4-Cyclohexylphenyl)-(4-trifluoromethoxybenzyl)amino]methyl}benzoylamino)propionic acid]	–	0.102 µM
O=C(O)CCNC(=O)c1ccc(CN(Cc2ccc(OC(F)(F)F)cc2)[C@H]2CC[C@H](C3CCCCC3)CC2)cc1 [Example 387, 3-(4-{[(trans-4-cyclohexylcyclohexyl)-(4-trifluoromethoxybenzyl)amino]methyl}benzoylamino)propionic acid]	–	0.111 µM
O=C(Nc1nn[nH]n1)c1ccc(CN(Cc2ccc(OC(F)(F)F)cc2)c2ccc(C3CCCCC3)cc2)cc1 [Example 388, 4-{[(4-Cyclohexylphenyl)-(4-trifluoromethoxybenzyl)amino]methyl}-N-(2H-tetrazol-5-yl)benzamide]	–	0.156 µM
CC(C)S(=O)(=O)Cc1cccc(NC(=O)N(Cc2ccc(C(=O)Nc3nn[nH]n3)cc2)c2ccc(C3CCCCC3)cc2)c1 [Example 389, 4-{1-(4-Cyclohexylphenyl)-3-[3-(propane-2-sulfonylmethyl)phenyl]ureidomethyl}-N-(2H-tetrazol-5-yl)benzamide]	–	0.337 µM
O=C(O)CCNC(=O)c1ccc(CN(C(=O)NCc2cc(Cl)cc(Cl)c2)c2ccc(C3CCCCC3)cc2)cc1 [Example 395, 3-{4-[1-(4-Cyclohexylphenyl)-3-(3,5-dichlorobenzyl)ureidomethyl]benzoylamino}propionic acid]	–	0.153 µM
O=C(Nc1nn[nH]n1)c1ccc(CN(C(=O)Nc2ccc3c(c2)OC(F)(F)C(F)(F)O3)c2ccc(C3CCCCC3)cc2)cc1 [Example 396, 4-[1-(4-Cyclohexylphenyl)-3-(2,2,3,3-tetrafluoro-2,3-dihydrobenzo[1,4]dioxin-6-yl)ureidomethyl]-N-(2H-tetrazol-5-yl)benzamide]	–	0.013 µM
O=C(O)CCNC(=O)c1ccc(CN(Cc2ccc(OC(F)(F)F)cc2)[C@H]2CC[C@@H](C3CCCCC3)CC2)cc1 [Example 570, 3-(4-{[(cis-4-Cyclohexylcyclohexyl)-(4-trifluoromethoxybenzyl)amino]methyl}benzoylamino)propionic acid]	–	0.044 µM
O=C(Nc1nn[nH]n1)c1ccc(CN(Cc2ccc(OC(F)(F)F)cc2)[C@H]2CC[C@@H](C3CCCCC3)CC2)cc1 [Example 572, 4-({(4-cis-Cyclohexylcyclohexyl)-[4-(trifluoromethoxy)benzyl]amino}methyl)-N-(2H-tetrazol-5-yl)benzamide]	–	0.166 µM
O=C(NCc1nn[nH]n1)c1ccc(CN(Cc2ccc(OC(F)(F)F)cc2)[C@H]2CC[C@@H](C3CCCCC3)CC2)cc1 [Example 573, 4-({(4-cis-Cyclohexylcyclohexyl)-[4-(trifluoromethoxy)benzyl]amino}methyl)-N-(2H-tetrazol-5-ylmethyl)benzamide]	–	0.152 µM
O=C(Nc1nn[nH]n1)c1ccc(CN(Cc2ccc(OC(F)(F)F)cc2)[C@H]2CC[C@H](C3CCCCC3)CC2)cc1 [Example 574, 4-({(trans-4-Cyclohexylcyclohexyl)-[4-(trifluoromethoxy)benzyl]amino}methyl)-N-(2H-tetrazol-5-yl)benzamide]	–	0.159 µM
O=C(Nc1nn[nH]n1)c1ccc(CN(C(=O)Nc2ccc(OC(F)(F)F)cc2)[C@H]2CC[C@@H](C3CCCCC3)CC2)cc1 [Example 575, 4-[1-(4-cis-Cyclohexylcyclohexyl)-3-(4-trifluoromethoxyphenyl)ureidomethyl]-N-(2H-tetrazol-5-yl)benzamide]	–	0.015 µM
O=C(Nc1nn[nH]n1)c1ccc(CN(C(=O)Nc2ccc(OC(F)(F)F)cc2)[C@H]2CC[C@H](C3CCCCC3)CC2)cc1 [Example 576, 4-[1-(4-trans-Cyclohexylcyclohexyl)-3-(4-trifluoromethoxyphenyl)ureidomethyl]-N-(2H-tetrazol-5-yl)benzamide]	–	0.004 µM
O=C(O)CCNC(=O)c1ccc(CN(C(=O)Nc2ccc(OC(F)(F)F)cc2)C2CCC(C3CCCCC3)CC2)cc1 (stereo not drawn) [Example 577, 3-{4-[1-(4-Cyclohexylcyclohexyl)-3-(4-trifluoromethoxyphenyl)ureidomethyl]benzoylamino}propionic acid]	–	0.018 µM

Reference: patent publication US6875760B2 (Novo Nordisk A/S, priority 1999, dated 2005)
